Laboratory results taken from patent publication US6737383B1, “Herbicidal oxadiazolidines” (priority 1999, dated 2004).

Columns and labels:
crabgrass = assay: Test B pre/postemergence crabgrass; format: in vivo, Digitaria sanguinalis
How it was run: (§1)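 Test chemicals in a non-phytotoxic solvent mixture with surfactant were sprayed preemergence onto planted seeds and postemergence onto plants 2 to 18 cm tall (1- to 4-leaf stage). After twelve to sixteen days in a greenhouse, injury was visually rated against untreated controls from 0 (no effect) to 10 (complete control).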

bedstraw = assay: Test B pre/postemergence bedstraw; format: in vivo, Galium aparine
How it was run: as §1

rice = assay: Test B flood test rice; format: in vivo, Oryza sativa
How it was run: (§2)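 Read-out is a visual response score from 0 (no effect) to 10 (complete control), assigned by comparison with untreated controls. Treatment was applied at the 2-leaf stage, and plants stayed in the greenhouse for twelve to sixteen days before scoring.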

wild oat = assay: Test B pre/postemergence wild oat; format: in vivo, Avena fatua
How it was run: as §1

blackgrass = assay: Test B pre/postemergence blackgrass; format: in vivo, Alopecurus myosuroides
How it was run: as §1

cocklebur = assay: Test B pre/postemergence cocklebur; format: in vivo, Xanthium strumarium
How it was run: as §1

corn = assay: Test B pre/postemergence corn; format: in vivo, Zea mays
How it was run: as §1

pigweed = assay: Test B pre/postemergence pigweed; format: in vivo, Amaranthus retroflexus
How it was run: as §1

morningglory = assay: Test B pre/postemergence morningglory; format: in vivo, Ipomoea hederacea
How it was run: as §1

surinam grass = assay: Test B pre/postemergence surinam grass; format: in vivo, Brachiaria decumbens
How it was run: as §1

rape = assay: Test B pre/postemergence rape; format: in vivo, Brassica napus
How it was run: as §1

bamyardgrass = assay: Test B flood test barnyardgrass; format: in vivo, Echinochloa crus-galli
How it was run: as §2

sugar beet = assay: Test B pre/postemergence sugar beet; format: in vivo, Beta vulgaris
How it was run: as §1

velvetleaf = assay: Test B pre/postemergence velvetleaf; format: in vivo, Abutilon theophrasti
How it was run: as §1

smallflower flatsedge = assay: Test B flood test smallflower flatsedge; format: in vivo, Cyperus difformis
How it was run: as §2

giant foxtail = assay: Test B pre/postemergence giant foxtail; format: in vivo, Setaria faberii
How it was run: as §1

[1] = Postemergence, Rate 62 g/ha, scale 0 to 10, 0 is no effect, 10 is complete control
[2] = Postemergence, Rate 250 g/ha, scale 0 to 10, 0 no effect, 10 complete control
[3] = Preemergence, Rate 62 g/ha, scale 0 to 10, 0 is no effect, 10 is complete control
[4] = Preemergence, Rate 125 g/ha, scale 0 to 10 (0 no effect, 10 complete control)
[5] = Preemergence, Rate 250 g/ha, scale of 0 to 10 where 0 is no effect and 10 is complete control
[6] = Preemergence, Rate 500 g/ha, scale 0 (no effect) to 10 (complete control)
[7] = Rate 125 g/ha, Postemergence, scale 0 to 10, 0 no effect, 10 complete control
[8] = Rate 500 g/ha, Postemergence, 0 to 10 scale (0 no effect, 10 complete control)
[9] = Rate 125 g/ha, Postemergence section (flood test species), scale 0 to 10, 0 no effect, 10 complete control
[10] = Rate 500 g/ha, Postemergence section of Table B, 0 to 10 scale (0 no effect, 10 complete control)
[11] = flood test, listed under Postemergence, Rate 250 g/ha, scale 0 to 10, 0 no effect, 10 complete control

Q: For `CCc1ccccc1-n1c(=O)on(C(=O)N(c2ccc(F)cc2)C(C)C)c1=O` [Compound 34], which “Crabgrass plant response rating” value (crabgrass; [1]) is on record?
A: 0

Q: What about the “Crabgrass plant response rating” value (crabgrass; [2]) of the same molecule?
A: 3

Q: What about the “Plant response rating, Crabgrass” value (crabgrass; [3]) of the same molecule?
A: 7

Q: And the “Plant response rating, Crabgrass” value (crabgrass; [4])?
A: 7

Q: And the “Plant response rating, Crabgrass” value (crabgrass; [5])?
A: 10

Q: And the “Crabgrass plant response rating” value (crabgrass; [6])?
A: 10

Q: And the “Crabgrass plant response rating” value (crabgrass; [7])?
A: 0

Q: What about the “Crabgrass plant response rating” value (crabgrass; [8]) of the same molecule?
A: 9

Q: What about the “Bedstraw plant response rating” value (bedstraw; [1]) of the same molecule?
A: 4

Q: What about the “Bedstraw plant response rating” value (bedstraw; [2]) of the same molecule?
A: 6

Q: What about the “Plant response rating, Bedstraw” value (bedstraw; [3]) of the same molecule?
A: 0

Q: What about the “Plant response rating, Bedstraw” value (bedstraw; [4]) of the same molecule?
A: 0

Q: What about the “Plant response rating, Bedstraw” value (bedstraw; [5]) of the same molecule?
A: 0

Q: And the “Bedstraw plant response rating” value (bedstraw; [6])?
A: 0

Q: What about the “Bedstraw plant response rating” value (bedstraw; [7]) of the same molecule?
A: 4

Q: And the “Bedstraw plant response rating” value (bedstraw; [8])?
A: 7

Q: What about the “Rice plant response rating” value (rice; [1]) of the same molecule?
A: 0

Q: What about the “Rice plant response rating” value (rice; [9]) of the same molecule?
A: 0

Q: What about the “Rice plant response rating” value (rice; [10]) of the same molecule?
A: 0

Q: What about the “Rice plant response rating” value (rice; [11]) of the same molecule?
A: 0

Q: What about the “Wild oats plant response rating” value (wild oat; [1]) of the same molecule?
A: 0

Q: What about the “Wild oats plant response rating” value (wild oat; [2]) of the same molecule?
A: 0

Q: And the “Plant response rating, Wild oats” value (wild oat; [4])?
A: 0

Q: And the “Plant response rating, Wild oats” value (wild oat; [5])?
A: 2

Q: And the “Wild oats plant response rating” value (wild oat; [6])?
A: 7

Q: What about the “Wild oats plant response rating” value (wild oat; [7]) of the same molecule?
A: 0

Q: What about the “Blackgrass plant response rating” value (blackgrass; [1]) of the same molecule?
A: 0

Q: And the “Blackgrass plant response rating” value (blackgrass; [2])?
A: 6

Q: What about the “Plant response rating, Blackgrass” value (blackgrass; [3]) of the same molecule?
A: 3

Q: What about the “Plant response rating, Blackgrass” value (blackgrass; [4]) of the same molecule?
A: 5

Q: And the “Plant response rating, Blackgrass” value (blackgrass; [5])?
A: 6

Q: And the “Blackgrass plant response rating” value (blackgrass; [6])?
A: 6

Q: And the “Blackgrass plant response rating” value (blackgrass; [7])?
A: 2

Q: What about the “Blackgrass plant response rating” value (blackgrass; [8]) of the same molecule?
A: 9

Q: And the “Cocklebur plant response rating” value (cocklebur; [1])?
A: 0

Q: What about the “Cocklebur plant response rating” value (cocklebur; [2]) of the same molecule?
A: 0

Q: What about the “Plant response rating, Cocklebur” value (cocklebur; [3]) of the same molecule?
A: 0

Q: What about the “Plant response rating, Cocklebur” value (cocklebur; [4]) of the same molecule?
A: 0

Q: And the “Plant response rating, Cocklebur” value (cocklebur; [5])?
A: 0

Q: What about the “Cocklebur plant response rating” value (cocklebur; [6]) of the same molecule?
A: 0

Q: What about the “Cocklebur plant response rating” value (cocklebur; [7]) of the same molecule?
A: 0

Q: And the “Cocklebur plant response rating” value (cocklebur; [8])?
A: 4

Q: And the “Corn plant response rating” value (corn; [1])?
A: 0

Q: And the “Corn plant response rating” value (corn; [2])?
A: 0

Q: What about the “Plant response rating, Corn” value (corn; [3]) of the same molecule?
A: 0

Q: And the “Plant response rating, Corn” value (corn; [4])?
A: 0

Q: What about the “Plant response rating, Corn” value (corn; [5]) of the same molecule?
A: 0

Q: And the “Corn plant response rating” value (corn; [6])?
A: 0

Q: And the “Corn plant response rating” value (corn; [7])?
A: 0

Q: What about the “Corn plant response rating” value (corn; [8]) of the same molecule?
A: 0

Q: And the “Redroot pigweed plant response rating” value (pigweed; [1])?
A: 0

Q: What about the “Redroot pigweed plant response rating” value (pigweed; [2]) of the same molecule?
A: 6

Q: And the “Plant response rating, Redroot pigweed” value (pigweed; [3])?
A: 0

Q: And the “Plant response rating, Redroot pigweed” value (pigweed; [4])?
A: 2

Q: What about the “Plant response rating, Redroot pigweed” value (pigweed; [5]) of the same molecule?
A: 6

Q: And the “Redroot pigweed plant response rating” value (pigweed; [6])?
A: 6

Q: What about the “Redroot pigweed plant response rating” value (pigweed; [7]) of the same molecule?
A: 0

Q: What about the “Redroot pigweed plant response rating” value (pigweed; [8]) of the same molecule?
A: 7

Q: And the “Morningglory plant response rating” value (morningglory; [1])?
A: 1

Q: What about the “Morningglory plant response rating” value (morningglory; [2]) of the same molecule?
A: 5

Q: What about the “Plant response rating, Morningglory” value (morningglory; [3]) of the same molecule?
A: 0

Q: What about the “Plant response rating, Morningglory” value (morningglory; [4]) of the same molecule?
A: 0

Q: And the “Plant response rating, Morningglory” value (morningglory; [5])?
A: 0

Q: What about the “Morningglory plant response rating” value (morningglory; [6]) of the same molecule?
A: 0

Q: And the “Morningglory plant response rating” value (morningglory; [7])?
A: 2

Q: And the “Morningglory plant response rating” value (morningglory; [8])?
A: 8

Q: And the “B. signalgrass plant response rating” value (surinam grass; [1])?
A: 0

Q: And the “B. signalgrass plant response rating” value (surinam grass; [2])?
A: 0

Q: And the “Plant response rating, B. signalgrass” value (surinam grass; [3])?
A: 0

Q: And the “Plant response rating, B. signalgrass” value (surinam grass; [4])?
A: 1

Q: And the “Plant response rating, B. signalgrass” value (surinam grass; [5])?
A: 2

Q: And the “B. signalgrass plant response rating” value (surinam grass; [6])?
A: 3

Q: And the “B. signalgrass plant response rating” value (surinam grass; [7])?
A: 0

Q: What about the “B. signalgrass plant response rating” value (surinam grass; [8]) of the same molecule?
A: 0

Q: What about the “Rape plant response rating” value (rape; [1]) of the same molecule?
A: 0

Q: What about the “Rape plant response rating” value (rape; [2]) of the same molecule?
A: 0

Q: What about the “Plant response rating, Rape” value (rape; [3]) of the same molecule?
A: 0

Q: And the “Plant response rating, Rape” value (rape; [4])?
A: 0

Q: And the “Plant response rating, Rape” value (rape; [5])?
A: 0

Q: What about the “Rape plant response rating” value (rape; [6]) of the same molecule?
A: 3

Q: What about the “Rape plant response rating” value (rape; [7]) of the same molecule?
A: 0

Q: And the “Rape plant response rating” value (rape; [8])?
A: 0

Q: And the “Barnyardgrass plant response rating” value (bamyardgrass; [1])?
A: 0

Q: What about the “Barnyardgrass plant response rating” value (bamyardgrass; [9]) of the same molecule?
A: 0

Q: What about the “Barnyardgrass plant response rating” value (bamyardgrass; [10]) of the same molecule?
A: 0

Q: What about the “Barnyardgrass plant response rating” value (bamyardgrass; [11]) of the same molecule?
A: 0

Q: What about the “Sugarbeets plant response rating” value (sugar beet; [1]) of the same molecule?
A: 0

Q: And the “Sugarbeets plant response rating” value (sugar beet; [2])?
A: 0

Q: And the “Plant response rating, Sugarbeets” value (sugar beet; [3])?
A: 0

Q: What about the “Plant response rating, Sugarbeets” value (sugar beet; [4]) of the same molecule?
A: 0

Q: And the “Plant response rating, Sugarbeets” value (sugar beet; [5])?
A: 0

Q: What about the “Sugarbeets plant response rating” value (sugar beet; [6]) of the same molecule?
A: 4

Q: And the “Sugarbeets plant response rating” value (sugar beet; [7])?
A: 0

Q: What about the “Velvetleaf plant response rating” value (velvetleaf; [1]) of the same molecule?
A: 0

Q: What about the “Velvetleaf plant response rating” value (velvetleaf; [2]) of the same molecule?
A: 2

Q: What about the “Plant response rating, Velvetleaf” value (velvetleaf; [3]) of the same molecule?
A: 0

Q: What about the “Plant response rating, Velvetleaf” value (velvetleaf; [4]) of the same molecule?
A: 0

Q: What about the “Plant response rating, Velvetleaf” value (velvetleaf; [5]) of the same molecule?
A: 0

Q: What about the “Velvetleaf plant response rating” value (velvetleaf; [6]) of the same molecule?
A: 2

Q: And the “Velvetleaf plant response rating” value (velvetleaf; [7])?
A: 0

Q: And the “S. Flatsedge plant response rating” value (smallflower flatsedge; [1])?
A: 0

Q: What about the “S. Flatsedge plant response rating” value (smallflower flatsedge; [9]) of the same molecule?
A: 0

Q: What about the “S. Flatsedge plant response rating” value (smallflower flatsedge; [11]) of the same molecule?
A: 0

Q: What about the “Giant foxtail plant response rating” value (giant foxtail; [1]) of the same molecule?
A: 0

Q: What about the “Giant foxtail plant response rating” value (giant foxtail; [2]) of the same molecule?
A: 2

Q: What about the “Plant response rating, Giant foxtail” value (giant foxtail; [3]) of the same molecule?
A: 2

Q: And the “Plant response rating, Giant foxtail” value (giant foxtail; [4])?
A: 6

Q: And the “Plant response rating, Giant foxtail” value (giant foxtail; [5])?
A: 10

Q: And the “Giant foxtail plant response rating” value (giant foxtail; [6])?
A: 10

Q: And the “Giant foxtail plant response rating” value (giant foxtail; [7])?
A: 0

Q: And the “Giant foxtail plant response rating” value (giant foxtail; [8])?
A: 8
